Measurements taken from PubChem BioAssay AID248 (DTP/NCI, 2004).
“And” between values parts separate entries of the source, which are not always exact repeats. Equal entries are not always repeated. Toxic doses and inconclusive results are not listed. Cut-off read from the data, not from the text of the source: active = T/C of 150% or more; inactive = T/C below 125%.

Test system: L1210 leukemia ip in BDF1 mice, survival T/C
Test: NCI In Vivo Anticancer Drug Screen. Data for tumor model L1210 Leukemia (intraperitoneal) in B6D2F1 (BDF1) mice
Conditions: endpoint: mean survival time, higher = longer survival
Outline: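 Mice bearing the transplanted tumor received compound or vehicle. Survival of the treated group was divided by that of the vehicle-treated control group to give the ratio.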

[1] = dose: 100.0 mg/kg/injection, schedule: Q01DX009 (ip), vehicle: Klucel (hydroxypropylcellulose) (HPC)
[2] = dose: 100.0 mg/kg/injection, schedule: Q04DX003 (ip), vehicle: Klucel (hydroxypropylcellulose) (HPC)
[3] = dose: 200.0 mg/kg/injection, schedule: Q01DX009 (ip), vehicle: Klucel (hydroxypropylcellulose) (HPC)
[4] = dose: 200.0 mg/kg/injection, schedule: Q04DX003 (ip), vehicle: Klucel (hydroxypropylcellulose) (HPC)
[5] = dose: 400.0 mg/kg/injection, schedule: Q01DX009 (ip), vehicle: Klucel (hydroxypropylcellulose) (HPC)
[6] = dose: 400.0 mg/kg/injection, schedule: Q04DX003 (ip), vehicle: Klucel (hydroxypropylcellulose) (HPC)
[7] = dose: 25.0 mg/kg/injection, schedule: Q01DX009 (ip), vehicle: Klucel (hydroxypropylcellulose) (HPC)
[8] = dose: 50.0 mg/kg/injection, schedule: Q01DX009 (ip), vehicle: Klucel (hydroxypropylcellulose) (HPC)
[9] = dose: 100.0 mg/kg/injection, schedule: Q04DX002 (ip), vehicle: Klucel (hydroxypropylcellulose) (HPC)
[10] = dose: 200.0 mg/kg/injection, schedule: Q04DX002 (ip), vehicle: Klucel (hydroxypropylcellulose) (HPC)
[11] = dose: 400.0 mg/kg/injection, schedule: Q04DX002 (ip), vehicle: Klucel (hydroxypropylcellulose) (HPC)
[12] = dose: 75.0 mg/kg/injection, schedule: Q01DX001 (ip), vehicle: saline
[13] = dose: 150.0 mg/kg/injection, schedule: Q01DX001 (ip), vehicle: saline
[14] = dose: 100.0 mg/kg/injection, schedule: Q04DX002 (ip), vehicle: saline with Tween-80
[15] = dose: 200.0 mg/kg/injection, schedule: Q04DX002 (ip), vehicle: saline with Tween-80
[16] = dose: 400.0 mg/kg/injection, schedule: Q04DX002 (ip), vehicle: saline with Tween-80

Measured: T/C

CC(C)CCCC(C)CC1CC(C)CCC1O (stereo unspecified)
inactive: [1] 93 % of control | [2] 98 % of control | [3] 92 % of control | [4] 94 % of control | [5] 101 % of control | [6] 96 % of control

O=C(O)CCCCCCCCCCNC(=O)Nc1cccc(C(F)(F)F)c1
inactive: dose: 100.0 mg/kg/injection, schedule: Q01DX001 (ip), vehicle: gum acacia 92 % of control and 96 % of control | dose: 100.0 mg/kg/injection, schedule: Q01DX009 (ip), vehicle: gum acacia 92 % of control | dose: 100.0 mg/kg/injection, schedule: Q04DX002 (ip), vehicle: gum acacia 93 % of control and 88 % of control | dose: 100.0 mg/kg/injection, schedule: Q04DX003 (ip), vehicle: gum acacia 93 % of control and 89 % of control and 90 % of control | dose: 200.0 mg/kg/injection, schedule: Q01DX001 (ip), vehicle: gum acacia 94 % of control and 89 % of control | dose: 200.0 mg/kg/injection, schedule: Q01DX009 (ip), vehicle: gum acacia 93 % of control | dose: 200.0 mg/kg/injection, schedule: Q04DX002 (ip), vehicle: gum acacia 92 % of control and 89 % of control | dose: 200.0 mg/kg/injection, schedule: Q04DX003 (ip), vehicle: gum acacia 93 % of control and 97 % of control and 88 % of control | dose: 400.0 mg/kg/injection, schedule: Q01DX001 (ip), vehicle: gum acacia 92 % of control and 96 % of control | dose: 400.0 mg/kg/injection, schedule: Q01DX009 (ip), vehicle: gum acacia 93 % of control | dose: 400.0 mg/kg/injection, schedule: Q04DX002 (ip), vehicle: gum acacia 86 % of control and 90 % of control | dose: 400.0 mg/kg/injection, schedule: Q04DX003 (ip), vehicle: gum acacia 94 % of control and 88 % of control

CCSCCO
inactive: dose: 100.0 mg/kg/injection, schedule: Q04DX003 (ip), vehicle: saline 92 % of control | dose: 200.0 mg/kg/injection, schedule: Q04DX003 (ip), vehicle: saline 102 % of control | dose: 400.0 mg/kg/injection, schedule: Q04DX003 (ip), vehicle: saline 100 % of control

CCNc1ccc(/C=C2\C=Cc3ccccc32)cc1
inactive: [7] 96 % of control | [8] 102 % of control | dose: 75.0 mg/kg/injection, schedule: Q01DX001 (ip), vehicle: olive oil, sesame oil, peanut oil 103 % of control | [1] 96 % of control | dose: 150.0 mg/kg/injection, schedule: Q01DX001 (ip), vehicle: olive oil, sesame oil, peanut oil 108 % of control

Cc1ccc(C(C)C)cc1NC(=S)Nc1ccccc1
inactive: [9] 105 % of control | [10] 111 % of control | [11] 97 % of control

CC1c2ccccc2C(C)c2c1cc(F)c1ccccc21 (stereo unspecified)
inactive: dose: 100.0 mg/kg/injection, schedule: Q04DX002 (ip), vehicle: other 115 % of control | dose: 200.0 mg/kg/injection, schedule: Q04DX002 (ip), vehicle: other 93 % of control | dose: 400.0 mg/kg/injection, schedule: Q04DX002 (ip), vehicle: other 101 % of control

c1ccc(NP2(Nc3ccccc3)=NP(Nc3ccccc3)(Nc3ccccc3)=NP(Nc3ccccc3)(Nc3ccccc3)=N2)cc1
inactive: [12] 96 % of control | [2] 99 % of control | [13] 101 % of control | [4] 89 % of control | dose: 300.0 mg/kg/injection, schedule: Q01DX001 (ip), vehicle: saline 91 % of control

O=C(NC(=S)N1CCCC1)c1ccccc1
inactive: [9] 96 % of control | [10] 107 % of control | [11] 96 % of control

CNC(=O)Nc1ccc(C)c(Cl)c1
inactive: [1] 100 % of control | [2] 102 % of control | [3] 90 % of control | [4] 102 % of control | [5] 106 % of control | [6] 104 % of control

Cc1[nH]c2ccccc2c1C(c1ccccc1O)c1c(C)[nH]c2ccccc12
inactive: [1] 97 % of control | [3] 103 % of control | [5] 101 % of control

O=C1C2CCC1C(N1CCCC1)CC2 (stereo unspecified)
inactive: [12] 101 % of control | [13] 104 % of control

CCOC(=O)c1c(O)cc(C)[nH]c1=O
inactive: dose: 50.0 mg/kg/injection, schedule: Q01DX001 (ip), vehicle: saline 102 % of control | dose: 100.0 mg/kg/injection, schedule: Q01DX001 (ip), vehicle: saline 96 % of control | dose: 200.0 mg/kg/injection, schedule: Q01DX001 (ip), vehicle: saline 104 % of control | dose: 400.0 mg/kg/injection, schedule: Q01DX001 (ip), vehicle: saline 104 % of control

COc1cc(/C=C(/C)[N+](=O)[O-])ccc1O
inactive: dose: 6.0 mg/kg/injection, schedule: Q01DX009 (ip), vehicle: carboxymethylcellulose (CMC) 112 % of control | dose: 12.0 mg/kg/injection, schedule: Q01DX009 (ip), vehicle: carboxymethylcellulose (CMC) 92 % of control | [7] 112 % of control | dose: 25.0 mg/kg/injection, schedule: Q01DX009 (ip), vehicle: carboxymethylcellulose (CMC) 105 % of control | [8] 100 % of control | dose: 50.0 mg/kg/injection, schedule: Q01DX009 (ip), vehicle: carboxymethylcellulose (CMC) 100 % of control and 103 % of control | dose: 50.0 mg/kg/injection, schedule: Q04DX003 (ip), vehicle: Klucel (hydroxypropylcellulose) (HPC) 97 % of control | [1] 109 % of control | [2] 105 % of control | [3] 103 % of control | [4] 103 % of control

Clc1ccc2c(NCCN3CCCCCC3)nc(C(Cl)(Cl)Cl)nc2c1
inactive: dose: 75.0 mg/kg/injection, schedule: Q01DX001 (ip), vehicle: other 103 % of control | dose: 150.0 mg/kg/injection, schedule: Q01DX001 (ip), vehicle: other 97 % of control

CCCc1nc2ccccc2[nH]1
inactive: dose: 100.0 mg/kg/injection, schedule: Q04DX003 (ip), vehicle: saline with Tween-80 96 % of control | dose: 200.0 mg/kg/injection, schedule: Q04DX003 (ip), vehicle: saline with Tween-80 100 % of control

CCCN(CCC)C(=O)/C(=C\c1ccccc1)NC(=O)c1ccccc1
inactive: dose: 100.0 mg/kg/injection, schedule: Q01DX001 (ip), vehicle: carboxymethylcellulose (CMC) 93 % of control | dose: 200.0 mg/kg/injection, schedule: Q01DX001 (ip), vehicle: carboxymethylcellulose (CMC) 93 % of control | dose: 400.0 mg/kg/injection, schedule: Q01DX001 (ip), vehicle: carboxymethylcellulose (CMC) 98 % of control

CSc1nc(SCc2ccccc2)[nH]c(=O)n1
inactive: [14] 98 % of control | [15] 117 % of control | [16] 98 % of control

COC(=O)c1cn2ccc(C(=O)c3ccccc3)cc2c1C(=O)OC
inactive: [9] 95 % of control | [10] 106 % of control | [11] 98 % of control

C=CCNC(=S)N(CCC#N)C1CCCCC1
inactive: [14] 101 % of control | [15] 90 % of control | [16] 93 % of control

CO/C=C(\C)C(=O)NC(=O)NC1CCC(CO)C1 (stereo unspecified)
inactive: dose: 100.0 mg/kg/injection, schedule: Q01DX001 (ip), vehicle: other 96 % of control | dose: 200.0 mg/kg/injection, schedule: Q01DX001 (ip), vehicle: other 107 % of control | dose: 400.0 mg/kg/injection, schedule: Q01DX001 (ip), vehicle: other 98 % of control

CCCCCCCCCCCCCCCCCC[n+]1ccccc1
inactive: dose: 0.09 mg/kg/injection, schedule: Q01DX009 (ip), vehicle: saline with Tween-80 89 % of control | dose: 0.19 mg/kg/injection, schedule: Q01DX009 (ip), vehicle: saline with Tween-80 99 % of control | dose: 0.39 mg/kg/injection, schedule: Q01DX009 (ip), vehicle: saline with Tween-80 96 % of control

CC(=O)N(O)CCCCCNC(=O)CCC(=O)N(O)CCCCCNC(=O)CCC(=O)N(O)CCCCCN
inactive: dose: 83.0 mg/kg/injection, schedule: Q03HX024 (ip), vehicle: water 103 % of control | dose: 125.0 mg/kg/injection, schedule: Q03HX024 (ip), vehicle: water 102 % of control | dose: 420.0 mg/kg/injection, schedule: Q03HX024 (ip), vehicle: clinical formulation 102 % of control | dose: 420.0 mg/kg/injection, schedule: Q03HX024 (ip), vehicle: water 95 % of control and 103 % of control

CN(C)c1ccc(C=O)c(F)c1
inactive: [1] 96 % of control | [3] 100 % of control | [5] 110 % of control

COc1cc2c(cc1OC)/C(=C\C(=O)N1CCCC1=O)CCC2
inactive: [1] 96 % of control | [2] 104 % of control | [3] 97 % of control | [4] 102 % of control | [5] 94 % of control | [6] 101 % of control
